Laboratory results: patent US12564580B2, “Mitochondria-targeted isoketal/isolevuglandin scavengers and uses thereof” (Vanderbilt University, priority 2020, dated 2026)

How the values were obtained:
mouse aortic rings = experiment: Vasodilatation study of aortic rings (endothelial-dependent relaxation); format: in vivo; conditions: Ang II plus mito2HOBA
Method: FIGS. 12A-D show the effect of mito2HOBA supplementation on mitochondrial superoxide (A), vascular superoxide (B), endothelial nitric oxide (C) and endothelial-dependent relaxation (D) in angiotensin II-infused mice. Mitochondrial and vascular O2⋅ was measured by mitochondria-targeted superoxide probe mitoSOX (1 μM) or untargeted superoxide probe DHE (50 μM) using HPLC.46 Endothelial nitric oxide was analyzed by NO spin trap Fe(DETC)2 and ESR.47 C57B1/6J mice were infused with Ang II and mito2HOBA was provided in the drinking water (0.1 g/L). […] Results are mean±SEM. *P<0.01 vs Sham, **P<0.01 vs Ang II (n=6).
Isometric tension studies were performed on 2 mm mouse aortic rings dissected free of perivascular fat from C57B/6J mice. Studies were performed in a horizontal wire myograph (DMT, Aarhus, Denmark, models 610 M and 620 M) containing physiological salt solution with the composition of 130 mM NaCl, 4.7 mM KCl 1.2 mM MgSO4, 1.2 mM KH2PO4, 15 mM NaHCO3, 5.5 mM glucose, and 1.6 mM CaCl2. The isometric tone of each vessel was recorded using LabChart Pro v7.3.7 (AD Instruments, Australia). […] Once the vessels reach a steady state contraction, increasing concentrations of acetylcholine were administered, and the response to each concentration of drug was recorded.

[1] = test system: mitochondrial isoLG-Lysyl-Lactam protein adducts; experiment: isoLG-Lysyl-Lactam adducts in kidney mitochondria by LC/MS/MS; format: in vivo, mouse; conditions: Ang II-infused mice, mito2HOBA 0.1 g/L
Source text: (§1) FIGS. 10A-D show the effect of mito2HOBA on angiotensin II-induced hypertension and accumulation of mitochondrial isoLGs protein adducts. (A) Blood pressure tail-cuff measurements in male Sham or angiotensin II-infused mice supplied with mito2HOBA in drinking water (0.1 g/L) or equimolar amount of untargeted analog 2HOBA (0.17 mmol/L). (B) Telemetry studies of blood pressure in angiotensin II-infused mice supplied with mito2HOBA or plain water as a vehicle. (C) Representative LC/MS/MS chromatograms of isoLG-Lysyl-Lactam adduct; (D) isoLG-Lys-Lactam levels in kidney mitochondria isolated from Sham or angiotensin II-infused mice supplied with mito2HOBA. Results are mean±SEM. *P<0.01 vs Sham, **P<0.01 vs Ang II (n=8).
C57B1/6J mice were sacrificed by carbon dioxide and kidneys removed, cleaned from fat tissue and placed in the ice-slurry cold isolation medium. […] Mitochondrial protein concentration was measured by Bradford method.
IsoLG-Lysyl-Lactam adducts were measured in mitochondria isolated from the kidneys of sham or angiotensin II-infused mice using Mass Spectrometry. […] A [^13C6] internal standard was added and the isoLG-lysyl adducts were purified by solid phase extraction and HPLC before being quantified by Liquid Chromatography-tandem Mass Spectrometry assay (LC/ESI/MS/MS) using isotopic dilution as described previously.

[2] = Reaction with the IsoLG analog 4-oxopentanal; format: physicochemical; conditions: % of 2HOBA itself
Source text: In order to confirm the IsoLG scavenging properties of mito2HOBA, the present inventors studied its reaction with the IsoLG analog 4-oxopentanal as the present inventors described previously. Mito2HOBA was highly reactive with 4-oxopentanal with a reaction rate constant that was about 50% of 2HOBA itself (Supplemental FIG. 1S). […] The overall rate of IsoLG scavenging in physiological conditions depends both on the rate constant and the local concentration of the scavenger (V=k*[mito2HOBA]*[IsoLG]). […] This will result in low level of mito2HOBA in cytoplasm but high mitochondrial accumulation leading to specific scavenging of IsoLG in mitochondria (FIG. 3).

[3] = test system: C57Bl/6J mice, Ang II-induced hypertension; experiment: Blood pressure in angiotensin II model of hypertension (tail-cuff and telemetry); format: in vivo, mouse
Source text: as §1
Hypertension was induced by angiotensin II ([…]) as described previously. To test the therapeutic potential of scavenging of mitochondrial isoLGs, wild-type C57B1/6J male and female mice (Jackson Labs) received saline or angiotensin II minipump placement, and provided with the plain water (vehicle) or mito2HOBA in the drinking water (0.1 g/liter). Blood pressure was monitored by the telemetry and tail-cuff measurements as previously described. The Vanderbilt Institutional Animal Care and Use Committee approved the procedures (Protocol M1700207). Simple randomization was used to select animals for sham, angiotensin II or mito2HOBA groups for equal chance of being allocated to treatment groups.
To test a functional role of mitochondrial isoLGs in hypertension, we used an Ang II model of hypertension, and monitored blood pressure by tail-cuff (FIG. 10A) and telemetry (FIG. 10B). […] Infusion of wild-type C57B1/6J mice with Ang II (0.7 mg/kg/day) increased systolic blood pressure to 162 mm Hg.

SMILES: NCc1ccc(OCCCC[P+](c2ccccc2)(c2ccccc2)c2ccccc2)cc1O [mito2HOBA]
- endothelial-dependent relaxation (mouse aortic rings): preserved
- isoLG-Lysyl-Lactam adducts formation in kidney mitochondria [1]: abolished
- reaction rate constant with 4-oxopentanal relative to 2HOBA [2]: about 50%
- systolic blood pressure ([3]; Ang II 0.7 mg/kg/day, mito2HOBA 0.1 g/L drinking water, tail-cuff and telemetry (Ang II alone 162)): 140 mm Hg
- blood pressure in control mice ([3]; mito2HOBA alone, no Ang II): did not affect
